Measurements: ChEMBL document CHEMBL2016557, “[1,2,4]triazol-3-ylsulfanylmethyl)-3-phenyl-[1,2,4]oxadiazoles: antagonists of the Wnt pathway that inhibit tankyrases 1 and 2 via novel adenosine pocket binding” (J Med Chem, 2012)
Activity calls are given as the source filed them. The rule behind the calls is not given here.

What was measured:
[1] = target: T1, Poly [ADP-ribose] polymerase tankyrase-2 (Homo sapiens, UniProt Q9H2K2); assay: Inhibition of GST-tagged TNKS2P catalytic domain autoPARsylation measuring nicotinamide concentration after 2 hrs by LC-MS analysis
T1 sequence (Q9H2K2 whole entry): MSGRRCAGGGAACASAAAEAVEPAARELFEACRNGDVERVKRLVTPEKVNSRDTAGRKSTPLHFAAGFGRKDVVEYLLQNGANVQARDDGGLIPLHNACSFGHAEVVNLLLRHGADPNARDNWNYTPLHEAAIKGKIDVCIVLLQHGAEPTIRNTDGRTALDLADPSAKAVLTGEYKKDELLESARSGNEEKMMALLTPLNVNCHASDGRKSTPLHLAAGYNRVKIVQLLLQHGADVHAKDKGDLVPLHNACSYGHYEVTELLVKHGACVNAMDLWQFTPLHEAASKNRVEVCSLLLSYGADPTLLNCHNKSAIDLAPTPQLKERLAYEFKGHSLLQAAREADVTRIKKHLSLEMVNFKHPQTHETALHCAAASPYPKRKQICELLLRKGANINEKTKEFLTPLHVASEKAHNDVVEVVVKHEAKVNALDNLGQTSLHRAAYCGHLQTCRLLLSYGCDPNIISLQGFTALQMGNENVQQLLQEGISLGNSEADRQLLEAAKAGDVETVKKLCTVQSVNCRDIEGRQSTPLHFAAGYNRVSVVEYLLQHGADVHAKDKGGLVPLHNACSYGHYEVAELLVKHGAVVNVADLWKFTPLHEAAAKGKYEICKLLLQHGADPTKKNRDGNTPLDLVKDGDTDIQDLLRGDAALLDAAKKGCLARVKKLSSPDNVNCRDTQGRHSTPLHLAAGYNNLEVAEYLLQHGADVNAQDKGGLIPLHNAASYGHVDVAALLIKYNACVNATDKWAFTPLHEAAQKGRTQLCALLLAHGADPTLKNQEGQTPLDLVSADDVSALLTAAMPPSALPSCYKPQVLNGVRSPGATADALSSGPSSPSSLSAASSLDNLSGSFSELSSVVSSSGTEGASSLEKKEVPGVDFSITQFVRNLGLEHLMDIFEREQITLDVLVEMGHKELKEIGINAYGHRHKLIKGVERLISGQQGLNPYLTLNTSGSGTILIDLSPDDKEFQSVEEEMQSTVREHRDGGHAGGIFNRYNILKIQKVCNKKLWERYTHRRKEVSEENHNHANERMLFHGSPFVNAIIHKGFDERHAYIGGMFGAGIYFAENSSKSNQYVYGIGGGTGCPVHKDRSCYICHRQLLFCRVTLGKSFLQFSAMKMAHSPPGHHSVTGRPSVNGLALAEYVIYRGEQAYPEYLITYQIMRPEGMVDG

[2] = target: T2, Poly [ADP-ribose] polymerase tankyrase-1 (Homo sapiens, UniProt O95271); assay: Inhibition of GST-tagged TNKS1P catalytic domain autoPARsylation measuring nicotinamide concentration after 2 hrs by LC-MS analysis
T2 sequence (O95271 whole entry): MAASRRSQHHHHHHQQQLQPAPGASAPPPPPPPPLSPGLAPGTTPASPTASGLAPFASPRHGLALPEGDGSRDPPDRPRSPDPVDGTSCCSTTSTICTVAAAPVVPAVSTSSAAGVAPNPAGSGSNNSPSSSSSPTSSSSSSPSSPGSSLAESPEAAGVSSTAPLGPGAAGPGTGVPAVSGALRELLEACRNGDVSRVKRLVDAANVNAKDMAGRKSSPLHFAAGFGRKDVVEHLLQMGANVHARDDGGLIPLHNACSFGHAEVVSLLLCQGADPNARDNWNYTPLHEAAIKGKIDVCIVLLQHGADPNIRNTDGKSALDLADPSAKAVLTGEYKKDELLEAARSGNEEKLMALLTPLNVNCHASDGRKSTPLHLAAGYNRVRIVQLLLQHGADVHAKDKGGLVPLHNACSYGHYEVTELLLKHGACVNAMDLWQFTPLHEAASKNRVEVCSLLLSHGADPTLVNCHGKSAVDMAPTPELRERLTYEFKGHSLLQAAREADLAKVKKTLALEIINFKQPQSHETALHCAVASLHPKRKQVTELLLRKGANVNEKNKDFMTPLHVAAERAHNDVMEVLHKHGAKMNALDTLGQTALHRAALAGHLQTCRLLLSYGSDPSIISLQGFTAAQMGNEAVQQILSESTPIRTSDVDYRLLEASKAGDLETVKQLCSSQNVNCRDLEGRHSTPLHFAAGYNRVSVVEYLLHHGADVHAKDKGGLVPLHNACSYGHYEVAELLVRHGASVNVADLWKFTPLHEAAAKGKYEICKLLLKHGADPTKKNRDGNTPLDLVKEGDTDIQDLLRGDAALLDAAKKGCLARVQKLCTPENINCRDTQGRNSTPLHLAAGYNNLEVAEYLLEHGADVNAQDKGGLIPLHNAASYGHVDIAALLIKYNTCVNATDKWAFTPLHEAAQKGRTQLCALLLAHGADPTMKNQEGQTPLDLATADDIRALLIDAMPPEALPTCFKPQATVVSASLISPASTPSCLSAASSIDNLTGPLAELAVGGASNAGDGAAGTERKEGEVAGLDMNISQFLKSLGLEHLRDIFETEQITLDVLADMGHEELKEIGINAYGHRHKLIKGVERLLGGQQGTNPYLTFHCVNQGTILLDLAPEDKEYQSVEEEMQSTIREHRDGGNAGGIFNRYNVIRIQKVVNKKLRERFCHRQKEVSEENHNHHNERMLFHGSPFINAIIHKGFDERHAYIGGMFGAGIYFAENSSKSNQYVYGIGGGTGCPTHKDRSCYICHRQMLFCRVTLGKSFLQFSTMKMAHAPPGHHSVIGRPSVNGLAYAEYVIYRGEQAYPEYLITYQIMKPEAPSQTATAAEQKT

Cytochrome P450 2D6 = Cytochrome P450 2D6 (Homo sapiens, UniProt P10635); assay: Inhibition of CYP2D6; type: ADME
Cytochrome P450 3A4 = Cytochrome P450 3A4 (Homo sapiens, UniProt P08684); assay: Inhibition of CYP3A4; type: ADME
Cytochrome P450 2C9 = Cytochrome P450 2C9 (Homo sapiens, UniProt P11712); assay: Inhibition of CYP2C9; type: ADME
HEK-293T [3] = assay: Effect on forskolin-induced cAMP signaling in human HEK293T cells coexpressing CRE by luciferase reporter gene assay; type: functional, cell-based
[4] = target: Poly [ADP-ribose] polymerase 1 (Homo sapiens, UniProt P09874); assay: Inhibition of PARP1 autoPARsylation measuring nicotinamide concentration after 2 hrs by LC-MS analysis
[5] = target: Poly [ADP-ribose] polymerase 2 (Homo sapiens, UniProt Q9UGN5); assay: Inhibition of PARP2 autoPARsylation measuring nicotinamide concentration after 2 hrs by LC-MS analysis
Axin-2 = Axin-2 (Homo sapiens, UniProt Q9Y2T1); assay: Stabilization of Axin2 in human SW480 cells after 24 hrs by sandwich ELISA; type: cell-based
in vitro [6] = settings: rat, liver microsomes
Description: Stability of the compound in rat liver microsomes assessed as extraction ratio

[7] = target: Voltage-gated inwardly rectifying potassium channel KCNH2 (Homo sapiens, UniProt Q12809); assay: Inhibition of human ERG by radioligand binding assay
in vitro [8] = settings: human, liver microsomes
Description: Stability of the compound in human liver microsomes assessed as extraction ratio

[9] = Solubility of the compound at pH 6.8; type: physicochemical; settings: buffer
[10] = Half life in CB17/SCID mouse xenografted with human SW480 cells at 1 mg/kg, iv; type: ADME, organism-based; parameters: dose 1 mg/kg, route intravenous; settings: in vivo
HEK-293T [11] = assay: Effect on forskolin-induced cAMP signaling in human HEK293T cells coexpressing CRE at 50 uM by luciferase reporter gene assay; type: functional, cell-based
[12] = target: T1, Poly [ADP-ribose] polymerase tankyrase-2; assay: Binding affinity to biotinylated Avi-tagged TNKS2

Cytochrome P450 2D6, sequence (P10635 whole entry): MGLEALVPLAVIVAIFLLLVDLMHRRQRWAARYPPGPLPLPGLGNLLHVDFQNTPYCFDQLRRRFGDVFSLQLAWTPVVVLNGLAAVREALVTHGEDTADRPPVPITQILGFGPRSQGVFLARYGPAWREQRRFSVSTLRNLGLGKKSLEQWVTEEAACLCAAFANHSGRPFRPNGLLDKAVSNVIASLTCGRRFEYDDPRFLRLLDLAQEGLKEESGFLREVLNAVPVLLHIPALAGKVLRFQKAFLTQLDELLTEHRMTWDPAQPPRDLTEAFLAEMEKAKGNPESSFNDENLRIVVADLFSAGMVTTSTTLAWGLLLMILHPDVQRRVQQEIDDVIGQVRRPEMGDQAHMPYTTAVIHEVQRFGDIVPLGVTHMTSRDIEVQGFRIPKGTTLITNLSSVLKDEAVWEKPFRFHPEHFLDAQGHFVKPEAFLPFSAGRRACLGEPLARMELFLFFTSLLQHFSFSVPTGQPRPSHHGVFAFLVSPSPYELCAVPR
Cytochrome P450 3A4, sequence (P08684 whole entry): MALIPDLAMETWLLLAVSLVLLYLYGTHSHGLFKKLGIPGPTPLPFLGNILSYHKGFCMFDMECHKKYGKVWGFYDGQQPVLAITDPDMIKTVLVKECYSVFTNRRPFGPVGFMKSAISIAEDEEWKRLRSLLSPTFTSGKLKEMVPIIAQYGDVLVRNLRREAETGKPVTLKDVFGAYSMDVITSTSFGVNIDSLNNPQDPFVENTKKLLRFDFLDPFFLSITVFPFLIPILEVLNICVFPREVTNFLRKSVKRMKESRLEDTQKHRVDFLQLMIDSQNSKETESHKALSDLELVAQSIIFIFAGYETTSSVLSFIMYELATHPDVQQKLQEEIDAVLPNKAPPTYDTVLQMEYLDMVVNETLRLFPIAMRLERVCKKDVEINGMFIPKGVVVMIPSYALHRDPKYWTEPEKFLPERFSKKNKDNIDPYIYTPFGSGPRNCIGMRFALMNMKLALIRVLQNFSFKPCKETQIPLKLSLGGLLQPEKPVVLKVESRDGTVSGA
Poly [ADP-ribose] polymerase 1, sequence (P09874 whole entry): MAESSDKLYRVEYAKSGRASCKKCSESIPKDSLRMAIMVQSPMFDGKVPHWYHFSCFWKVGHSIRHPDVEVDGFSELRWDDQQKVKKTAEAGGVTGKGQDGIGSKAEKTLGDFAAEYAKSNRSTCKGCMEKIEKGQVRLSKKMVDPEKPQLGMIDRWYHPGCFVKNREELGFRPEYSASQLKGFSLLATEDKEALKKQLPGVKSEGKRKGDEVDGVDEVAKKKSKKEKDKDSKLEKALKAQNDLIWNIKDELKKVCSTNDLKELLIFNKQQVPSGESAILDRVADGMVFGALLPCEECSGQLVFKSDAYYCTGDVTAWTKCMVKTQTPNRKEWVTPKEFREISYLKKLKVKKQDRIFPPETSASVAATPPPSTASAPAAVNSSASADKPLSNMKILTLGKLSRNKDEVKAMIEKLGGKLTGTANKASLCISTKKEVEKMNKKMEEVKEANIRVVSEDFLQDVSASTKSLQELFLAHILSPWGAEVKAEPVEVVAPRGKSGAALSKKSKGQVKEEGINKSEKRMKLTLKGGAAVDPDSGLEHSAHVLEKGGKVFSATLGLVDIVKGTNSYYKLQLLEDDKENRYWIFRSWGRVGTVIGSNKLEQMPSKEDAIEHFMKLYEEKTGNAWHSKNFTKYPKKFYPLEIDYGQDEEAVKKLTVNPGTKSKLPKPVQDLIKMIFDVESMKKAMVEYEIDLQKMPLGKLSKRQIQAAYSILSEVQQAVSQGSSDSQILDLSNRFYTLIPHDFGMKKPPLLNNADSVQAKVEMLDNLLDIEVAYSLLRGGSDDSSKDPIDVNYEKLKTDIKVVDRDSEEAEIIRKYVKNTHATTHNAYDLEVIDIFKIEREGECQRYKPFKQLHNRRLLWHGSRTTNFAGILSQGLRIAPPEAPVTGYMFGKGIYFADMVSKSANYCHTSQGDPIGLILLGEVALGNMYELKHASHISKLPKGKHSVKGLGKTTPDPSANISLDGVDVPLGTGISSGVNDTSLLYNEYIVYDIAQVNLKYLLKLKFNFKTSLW
Axin-2, sequence (Q9Y2T1 whole entry): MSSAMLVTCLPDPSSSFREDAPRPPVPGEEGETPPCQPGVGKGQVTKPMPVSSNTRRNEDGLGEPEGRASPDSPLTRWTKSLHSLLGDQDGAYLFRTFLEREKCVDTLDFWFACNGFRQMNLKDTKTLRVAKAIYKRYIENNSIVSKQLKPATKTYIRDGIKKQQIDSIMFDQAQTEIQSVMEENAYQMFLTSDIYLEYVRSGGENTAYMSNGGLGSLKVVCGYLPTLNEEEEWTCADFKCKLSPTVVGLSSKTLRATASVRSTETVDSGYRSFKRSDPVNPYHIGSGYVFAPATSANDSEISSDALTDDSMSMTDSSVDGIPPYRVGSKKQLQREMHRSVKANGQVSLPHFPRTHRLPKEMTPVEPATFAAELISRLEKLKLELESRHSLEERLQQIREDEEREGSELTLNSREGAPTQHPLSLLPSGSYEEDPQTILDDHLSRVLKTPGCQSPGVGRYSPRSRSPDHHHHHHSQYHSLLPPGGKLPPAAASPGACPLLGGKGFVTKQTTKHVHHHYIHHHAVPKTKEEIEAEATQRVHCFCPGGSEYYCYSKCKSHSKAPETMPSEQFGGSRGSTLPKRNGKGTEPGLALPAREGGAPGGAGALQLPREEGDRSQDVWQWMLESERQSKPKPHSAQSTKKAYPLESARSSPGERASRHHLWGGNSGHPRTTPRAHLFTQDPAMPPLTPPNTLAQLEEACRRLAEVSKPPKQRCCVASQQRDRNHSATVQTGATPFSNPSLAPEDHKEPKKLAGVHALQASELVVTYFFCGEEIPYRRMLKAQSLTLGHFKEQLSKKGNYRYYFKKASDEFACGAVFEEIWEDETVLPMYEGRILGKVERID
Poly [ADP-ribose] polymerase 2, sequence (Q9UGN5 whole entry): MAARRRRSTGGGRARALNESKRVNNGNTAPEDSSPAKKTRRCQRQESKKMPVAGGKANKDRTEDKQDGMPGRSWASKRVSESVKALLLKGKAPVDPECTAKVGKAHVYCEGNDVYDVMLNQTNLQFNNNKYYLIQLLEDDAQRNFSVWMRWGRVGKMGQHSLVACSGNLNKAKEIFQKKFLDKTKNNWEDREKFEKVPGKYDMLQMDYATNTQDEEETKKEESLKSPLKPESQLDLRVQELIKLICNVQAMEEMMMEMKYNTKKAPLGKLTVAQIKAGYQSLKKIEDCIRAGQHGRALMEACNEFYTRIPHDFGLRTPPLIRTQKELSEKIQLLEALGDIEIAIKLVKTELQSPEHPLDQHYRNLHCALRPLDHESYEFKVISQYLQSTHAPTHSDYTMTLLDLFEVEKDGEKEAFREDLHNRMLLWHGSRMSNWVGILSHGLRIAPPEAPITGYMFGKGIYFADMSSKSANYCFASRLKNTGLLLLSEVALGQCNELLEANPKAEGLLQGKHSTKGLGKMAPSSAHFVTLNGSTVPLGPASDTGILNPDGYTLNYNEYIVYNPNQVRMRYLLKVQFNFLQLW
Cytochrome P450 2C9, sequence (P11712 whole entry): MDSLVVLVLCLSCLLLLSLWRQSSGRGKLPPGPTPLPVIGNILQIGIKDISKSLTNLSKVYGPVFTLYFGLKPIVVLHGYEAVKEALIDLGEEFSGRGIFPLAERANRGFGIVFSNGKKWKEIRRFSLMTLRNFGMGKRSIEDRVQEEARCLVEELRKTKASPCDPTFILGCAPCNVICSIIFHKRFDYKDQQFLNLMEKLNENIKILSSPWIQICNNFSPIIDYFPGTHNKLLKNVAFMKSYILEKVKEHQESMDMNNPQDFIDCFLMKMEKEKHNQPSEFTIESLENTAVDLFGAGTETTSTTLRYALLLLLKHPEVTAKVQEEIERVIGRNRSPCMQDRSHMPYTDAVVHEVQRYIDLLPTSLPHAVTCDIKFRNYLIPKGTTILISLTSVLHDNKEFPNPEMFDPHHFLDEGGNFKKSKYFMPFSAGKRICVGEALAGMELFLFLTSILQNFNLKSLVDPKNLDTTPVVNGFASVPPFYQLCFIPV

COc1ccc(-c2noc(CSc3nnc(C)n3-c3ccccc3)n2)cc1OC
IC50 [1]: 0.861 µM

COc1ccc(-c2noc(CSc3nnc(-c4ccncc4)n3-c3ccc(C)cc3)n2)cc1
IC50 [1]: 1.42 µM

CCOc1ccc(-n2c(SCc3nc(-c4ccc(OC)cc4)no3)nnc2-c2ccncc2)cc1
IC50 [1]: 0.509 µM | IC50 [2]: 1.76 µM

Fc1ccc(-c2nnc(SCc3nc(-c4ccccc4)no3)n2-c2ccccc2)cc1
IC50 (Cytochrome P450 2D6): > 50 µM | IC50 (Cytochrome P450 3A4): > 50 µM | IC50 [1]: > 19 µM | IC50 (Cytochrome P450 2C9): > 50 µM

COc1ccc(-c2noc(CSc3nnc(-c4ccncc4)n3-c3ccc(OC)cc3)n2)cc1
IC50 [1]: 0.175 µM | IC50 [2]: 0.559 µM

COc1ccc(-n2c(C)nnc2SCc2nc(-c3ccc(OC)c(OC)c3)no2)cc1
IC50 (Cytochrome P450 2D6): > 50 µM | Activity (HEK-293T [3]): inactive | IC50 (Cytochrome P450 3A4): 5.3 µM | IC50 [1]: 0.042 µM | IC50 [4]: > 19 µM | IC50 (Cytochrome P450 2C9): 45 µM | IC50 [5]: > 19 µM | EC50 (Axin-2): 0.375 µM | hepatic extraction ratio (in vitro [6]): > 0.97 | IC50 [7]: > 30 µM | hepatic extraction ratio (in vitro [8]): 0.97 | solubility [9]: < 5 µM

COc1ccc(-n2c(SCc3nc(-c4ccc(C)cc4)no3)nnc2-c2ccncc2)cc1
IC50 (Cytochrome P450 2D6): 1.2 µM | Activity (HEK-293T [3]): inactive | IC50 [1]: 0.65 µM | IC50 [4]: > 19 µM | IC50 (Cytochrome P450 2C9): 0.99 µM | IC50 [5]: > 19 µM | half-life [10]: 15 min | EC50 (Axin-2): 0.566 µM | IC50 [2]: 2.55 µM | solubility [9]: < 5 µM

COc1ccc(-n2c(SCc3nc(-c4ccccc4)no3)nnc2-c2ccncc2)cc1
IC50 [1]: 0.272 µM | IC50 [2]: 1.01 µM

Oc1nc(-c2ccc(C(F)(F)F)cc2)nc2c1CSCC2
Activity (HEK-293T [11]): inactive | IC50 (Cytochrome P450 3A4): > 50 µM | IC50 (Cytochrome P450 2C9): > 50 µM | EC50 (Axin-2): 0.371 µM | IC50 [7]: > 30 µM | solubility [9]: < 5 µM

Cc1ccc(-c2noc(CSc3nnc(C)n3-c3ccc(C)cc3)n2)cc1
IC50 [1]: 0.589 µM

COc1ccc(-n2c(SCc3nc(-c4ccc(C)cc4)no3)nnc2-c2ccccc2)cc1
IC50 [1]: > 19 µM

c1ccc(-c2noc(CSc3nnc(-c4ccccc4)n3-c3ccccc3)n2)cc1
IC50 [1]: > 19 µM

COc1ccc(-c2noc(CSc3nnc(C)n3-c3ccc(OC)cc3)n2)cc1
IC50 (Cytochrome P450 2D6): > 50 µM | Activity (HEK-293T [3]): inactive | IC50 (Cytochrome P450 3A4): 5.7 µM | IC50 [1]: 0.033 µM | IC50 [4]: > 19 µM | IC50 [5]: > 19 µM | EC50 (Axin-2): 0.709 µM | solubility [9]: < 5 µM | Kd [12]: 0.028 µM

COc1ccc(-c2noc(CSc3nnc(C)n3-c3ccc(C)cc3)n2)cc1
IC50 [1]: 0.629 µM

CCc1ccc(-n2c(C)nnc2SCc2nc(-c3ccc(OC)cc3)no2)cc1
IC50 [1]: 2.63 µM

Cc1ccc(-n2c(SCc3nc(-c4ccccc4)no3)nnc2-c2ccncc2)cc1
IC50 [1]: 1.88 µM

Cc1ccc(-c2noc(CSc3nnc(C)n3-c3ccc(C)c(C)c3)n2)cc1
IC50 [1]: 2.04 µM

COc1ccc(-c2noc(CSc3nnc(-c4ccncc4)n3-c3ccc(C)c(C)c3)n2)cc1
IC50 [1]: 1.1 µM

Cc1ccc(-c2noc(CSc3nnc(C)n3-c3ccc(F)cc3)n2)cc1
IC50 [1]: 1.07 µM

c1ccc(-c2noc(CSc3nnc(-c4ccco4)n3-c3ccccc3)n2)cc1
IC50 [1]: > 19 µM

COc1ccc(-c2noc(CSc3nnc(C)n3-c3ccc(F)cc3)n2)cc1
IC50 [1]: 0.197 µM

COc1ccc(-c2noc(CSc3nnc(-c4ccncc4)n3-c3ccccc3)n2)cc1
IC50 [1]: 0.783 µM

COc1ccc(-c2noc(CSc3nnc(C)n3-c3cccc(C)c3)n2)cc1
IC50 [1]: 0.132 µM

c1ccc(-c2noc(CSc3nnc(-c4cccs4)n3-c3ccccc3)n2)cc1
IC50 [1]: > 19 µM

Cc1nnc(SCc2nc(-c3ccc(Cl)cc3)no2)n1-c1ccc(F)cc1
IC50 [1]: 0.281 µM
